Assays:
Experiment in all cases: relative viability (nuclei count vs DMSO), 5 days (fraction); higher = more cells survive
Calu-6 = test system: Calu-6
Method in brief: (§1)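 Lung cancer cell lines in 1536-well plates were dosed by pin tool the day after seeding, either with one drug alone or with a fixed anchor-drug dose plus five library-drug doses (not always all listed) in √10 steps. After 5 days, cells were fixed and their nuclei stained in one step (final 0.05% Triton X-100, 1% formaldehyde, 1 ug/ml Hoechst), then counted on 4× images. Relative viability is the nuclei count in treated wells divided by that in vehicle wells. Values are medians of duplicate plates.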

NCI-H1944 = test system: NCI-H1944
Method in brief: as §1

NCI-H661 = test system: NCI-H661
Method in brief: as §1

SK-LU-1 = test system: SK-LU-1
Method in brief: as §1

IA-LM = test system: IA-LM
Method in brief: as §1

NCI-H1666 = test system: NCI-H1666
Method in brief: as §1

NCI-H1299 = test system: NCI-H1299
Method in brief: as §1

PC-14 = test system: PC-14
Method in brief: as §1

A549 = test system: A549
Method in brief: as §1

EBC-1 = test system: EBC-1
Method in brief: as §1

NCI-H596 = test system: NCI-H596
Method in brief: as §1

NCI-H1703 = test system: NCI-H1703
Method in brief: as §1

Cc1cn(-c2cc(NC(=O)c3ccc(C)c(Nc4nccc(-c5cccnc5)n4)c3)cc(C(F)(F)F)c2)cn1 [Nilotinib] + CS(=O)(=O)N1CCN(Cc2cc3nc(-c4cccc5[nH]ncc45)nc(N4CCOCC4)c3s2)CC1 [Pictilisib] (partner 1 µM)
relative viability (Calu-6; first compound 0.001 µM): 0.893
relative viability (Calu-6; first compound 0.003162 µM): 0.919
relative viability (Calu-6; first compound 0.01 µM): 1.06
relative viability (Calu-6; first compound 0.03162 µM): 0.864
relative viability (Calu-6; first compound 0.1 µM): 0.827
relative viability (NCI-H1944; first compound 0.001 µM): 0.355
relative viability (NCI-H1944; first compound 0.003162 µM): 0.342
relative viability (NCI-H1944; first compound 0.01 µM): 0.358
relative viability (NCI-H1944; first compound 0.03162 µM): 0.345
relative viability (NCI-H1944; first compound 0.1 µM): 0.234
relative viability (NCI-H661; first compound 0.001 µM): 0.396
relative viability (NCI-H661; first compound 0.003162 µM): 0.38
relative viability (NCI-H661; first compound 0.01 µM): 0.438
relative viability (NCI-H661; first compound 0.03162 µM): 0.325
relative viability (NCI-H661; first compound 0.1 µM): 0.391
relative viability (SK-LU-1; first compound 0.001 µM): 0.499
relative viability (SK-LU-1; first compound 0.003162 µM): 0.526
relative viability (SK-LU-1; first compound 0.01 µM): 0.563
relative viability (SK-LU-1; first compound 0.03162 µM): 0.366
relative viability (SK-LU-1; first compound 0.1 µM): 0.499
relative viability (IA-LM; first compound 0.001 µM): 0.36
relative viability (IA-LM; first compound 0.003162 µM): 0.431
relative viability (IA-LM; first compound 0.01 µM): 0.426
relative viability (IA-LM; first compound 0.03162 µM): 0.209
relative viability (IA-LM; first compound 0.1 µM): 0.41
relative viability (NCI-H1666; first compound 0.001 µM): 0.348
relative viability (NCI-H1666; first compound 0.003162 µM): 0.319
relative viability (NCI-H1666; first compound 0.01 µM): 0.373
relative viability (NCI-H1666; first compound 0.03162 µM): 0.463
relative viability (NCI-H1666; first compound 0.1 µM): 0.397
relative viability (NCI-H1299; first compound 0.001 µM): 0.611
relative viability (NCI-H1299; first compound 0.003162 µM): 1.12
relative viability (NCI-H1299; first compound 0.01 µM): 0.887
relative viability (NCI-H1299; first compound 0.03162 µM): 0.495
relative viability (NCI-H1299; first compound 0.1 µM): 0.396
relative viability (PC-14; first compound 0.003162 µM): 0.83
relative viability (PC-14; first compound 0.01 µM): 0.841
relative viability (PC-14; first compound 0.03162 µM): 0.503
relative viability (PC-14; first compound 0.1 µM): 0.664
relative viability (A549; first compound 0.003162 µM): 0.743
relative viability (A549; first compound 0.01 µM): 0.6
relative viability (A549; first compound 0.03162 µM): 0.368
relative viability (A549; first compound 0.1 µM): 0.374
relative viability (EBC-1; first compound 0.003162 µM): 0.287
relative viability (EBC-1; first compound 0.01 µM): 0.313
relative viability (EBC-1; first compound 0.03162 µM): 0.289
relative viability (EBC-1; first compound 0.1 µM): 0.253
relative viability (NCI-H596; first compound 0.001 µM): 0.352
relative viability (NCI-H596; first compound 0.003162 µM): 0.41
relative viability (NCI-H596; first compound 0.01 µM): 0.386
relative viability (NCI-H596; first compound 0.03162 µM): 0.393
relative viability (NCI-H596; first compound 0.1 µM): 0.366
relative viability (NCI-H1703; first compound 0.001 µM): 0.225
relative viability (NCI-H1703; first compound 0.003162 µM): 0.291
relative viability (NCI-H1703; first compound 0.01 µM): 0.19
relative viability (NCI-H1703; first compound 0.03162 µM): 0.215
relative viability (NCI-H1703; first compound 0.1 µM): 0.196
